Test results taken from patent US12605350B2, “Composition for preventing, ameliorating, or treating disease caused by nitration of tyrosine in proteins comprising tyrosine as effective component” (INDUSTRY-ACADEMIC COOPERATION FOUNDATION GYEONGSANG …, priority 2020, dated 2026).

Experiments:
[1] = tested on: high-fat diet mouse model of type 2 diabetes; assay: ROS/RNS amount in plasma, high-fat diet model; assay type: in vivo; details: HFD+L-Tyr vs HFD
Description: Twenty-seven C57BL/6 male mice (3-week old) were acclimated to the breeding condition for 1 week. […] Blood glucose was measured every week.
Mouse was anesthetized with avertin, and blood was collected from a heart. After the reaction with EDTA in a vacucontainer, the blood was centrifuged for 15 minutes at 1,500×g, 4° C. to separate plasma. According to heart perfusion with PBS and 4% paraformaldehyde (PFA), tissue fixation was carried out. Then, each tissue was harvested and stored in PFA.
After 3-fold dilution of the plasma in PBS, concentration of reactive oxygen/reactive nitrogen (ROS/RNS) in plasma was measured using Oxiselect ROS/RNS assay kit (Cell Biolabs) according to the recommended experimental protocol.

[2] = tested on: animal model of acute hepatic encephalopathy caused by AOM; assay: ALT in plasma, hepatic encephalopathy caused by azoxymethane; assay type: in vivo, mouse; details: L-tyrosine 100 mg/kg oral once a day for 4 days, AOM 100 mg/kg i.p.
Description: C57BL/6 male mouse (13-week old, KOATECH, South Korea) was allowed to have free access to diets and water in sterile breeding room with constant temperature and humidity. The animals were divided into 3 test groups, i.e., (1) Control group (Control), (2) Carboxymethyl cellulose+azoxymethane treatment group (CMC+AOM), and (3) L-Tyrosine+AOM treatment group (L-Tyr+AOM). L-Tyrosine (100 mg/kg) was suspended in 0.5% CMC (carboxymethyl cellulose). The animal was orally administered, once a day for 4 days, with L-tyrosine or the prepared solvent CMC. Two hours after the oral administration on Day 4, intraperitoneal injection of AOM (100 mg/kg, […]) was carried out. To prevent dehydration, the animal was intraperitoneally injected with […] of physiological saline, 12 hours after the administration of AOM. Four hours after the injection, the test animal was sacrificed, blood was collected from the heart, and the liver tissues were harvested. Blood collected in the above was centrifuged for 15 minutes at 3,000 rpm to separate plasma, and ALT (alanine aminotransferase) as an index of liver cell injury was measured by using ChemiLab GPT Assay Kit (IVD-LAB, Korea). According to the standard measurement method of the kit, absorbance was measured at a wavelength of 340 nm, and then expressed in unit of U/L.

human recombinant MnSOD = target: T1, human recombinant MnSOD (Homo sapiens, UniProt P04179); assay: SOD activity of human recombinant MnSOD treated with peroxynitrite; assay type: biochemical; details: human recombinant MnSOD with peroxynitrite (2.1 mM PN), 10 minutes on ice
T1 sequence (P04179 25-222): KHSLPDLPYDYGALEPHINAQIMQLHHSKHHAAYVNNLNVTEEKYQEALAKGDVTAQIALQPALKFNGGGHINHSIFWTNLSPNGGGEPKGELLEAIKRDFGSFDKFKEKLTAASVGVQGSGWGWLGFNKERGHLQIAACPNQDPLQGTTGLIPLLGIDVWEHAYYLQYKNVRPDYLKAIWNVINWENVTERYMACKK
Description: Peroxynitrite was diluted by 40 times with 0.3 M NaOH, and absorbance at 302 nm was measured. Then, it was quantified by using the molar absorption coefficient of peroxynitrite) (ε302=1670 M^−1 cm^−1).
For the measurement of SOD activity, SOD colorimetric activity kit by ThermoFisher was used. Human recombinant MnSOD within reference SOD range, peptide, and peroxynitrite were admixed with one another, and the reaction was allowed to occur on ice for 10 minutes. To a 96-well plate, 10 μl of reference SOD or the reaction mixture, and 50 μl of a substrate solution provided in the kit were added, and the absorbance at 450 nm was measured. After adding 25μl of xanthine oxidase provided in the kit and allowing the reaction to occur for 20 minutes at room temperature, absorbance at 450 nm was measured. By using the data obtained by subtracting the first-measured absorbance from the second-measured absorbance, SOD activity was obtained.

[3] = tested on: glutamine synthetase (GS); assay: GS activity, GS expression and Tyr-nitrated GS in PFC of chronic immobilization stress mice; assay type: in vivo, mouse
Description: Each of the blood and PFC sample was obtained from a mouse anesthetized with CO2 gas. Specifically, mouse blood was collected between 9 AM and 11 AM and stored in a K3EDTA-coated vacuum container. Plasma was obtained by centrifuge for 10 minutes at 4° C., 500×g. PFC sample was weighed first, and, after lysis of the tissues by using Bullet homogenizer, subjected to centrifuge for 20 minutes at 4° C., 12,000 rpm. Thus-obtained plasma and tissue lysate were kept at −80° C. until use.
10 μg of the lysate were admixed with […] of GS assay buffer solution (50 mM imidazole-HCl, pH 6.8, 50 mM L-glutamine, 25 mM hydroxylamine, 25 mM sodium arsenate, 2 mM MnCl2 and 0.16 mM ADP), followed by incubation for 1 hour at 37° C.
After the mixing, the reaction was terminated by adding 50 μl of stop buffer solution (90 mM FeCl3, 1.8 N HCl and 1.45% trichloroacetic acid), and then γ-glutamylhydroxamate synthesized from a reaction between glutamine and hydroxylamine as catalyzed by GS was measured at 560 nm using a microplate reader.
By using Western blot (WB) and immunoprecipitation (IP)-WB, level of GS and level of Tyr-nitrated GS were measured, respectively. […]
The animal models were divided into two groups (i.e., normal group and stress group). […] Change in bodyweight and food intake amount were measured every other day. […]

Structure (SMILES)	plasma ROS/RNS level [1]	ALT in plasma [2]	MnSOD (SOD) activity (human recombinant MnSOD)	plasma ROS/RNS level ([1]; listed as Tyr)	GS activity in PFC ([3]; stress group, tyrosine diet (181.2 mg/kg) compared to normal diet)	amount of N-Tyr (nitrated tyrosine) in GS ([3]; tyrosine-diet group compared to stress group with normal diet, PFC)	MnSOD (SOD) activity (human recombinant MnSOD; listed as Tyr)
N[C@@H](Cc1ccc(O)cc1)C(=O)O [L-tyrosine]	statistically significant decrease in plasma ROS/RNS level	suppressed with statistical significance	higher MnSOD activity	–	–	–	–
N[C@@H](Cc1ccc(O)cc1)C(=O)O [tyrosine]	–	–	–	statistically significant decrease in tissue weight and ROS/RNS amount in plasma	statistically significant increase in the GS activity	statistically significant decrease in the amount of N-Tyr	SOD activity can be maintained
